# Test results as given in patent publication US6602888B2, “Use of α1C specific compounds to treat benign prostatic hyperplasia” (Synaptic Pharmaceutical Corporation, priority 1992, dated 2003).
# pKi: −log10 of the molar value. Counter-ions that a name gives are not always drawn. Like-named read-outs stand apart in the source and are kept apart here.
# How the values were obtained:
# human 5HT1F receptor = target: T1, human 5HT1F receptor (Homo sapiens, UniProt P30939); assay: [3H]serotonin competition binding, 5HT1F receptor
# T1 construct: host or cells: LM(tk-) clonal cell line L-5-HT1F
# T1 sequence (P30939 1-366): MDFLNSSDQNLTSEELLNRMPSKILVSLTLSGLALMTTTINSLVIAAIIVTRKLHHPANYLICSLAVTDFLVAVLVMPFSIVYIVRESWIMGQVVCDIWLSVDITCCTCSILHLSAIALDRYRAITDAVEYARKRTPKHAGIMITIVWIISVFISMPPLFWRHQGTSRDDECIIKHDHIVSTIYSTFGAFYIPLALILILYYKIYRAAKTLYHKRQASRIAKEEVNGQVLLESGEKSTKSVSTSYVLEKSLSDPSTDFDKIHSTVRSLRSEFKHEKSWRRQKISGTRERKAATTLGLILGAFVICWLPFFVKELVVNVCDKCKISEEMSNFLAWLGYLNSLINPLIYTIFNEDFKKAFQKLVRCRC
# Protocol: (§1) 5HT1Dα, 5HT1Dβ, 5HT1E, 5HT1F Receptors: The cell lysates of LM(tk−) clonal cell line stably transfected with the genes encoding each of these 5HT receptor-subtypes were prepared as described above. The cell line for the 5HT1Dα receptor, designated as Ltk-8-30-84, was deposited on Apr. […] The cell for the 5HT1Dβ receptor, designated as Ltk-11, was deposited on Apr. […] The cell line for the 5HT1E receptor, designated 5 HT1E-7, was deposited on Nov. […] The cell line for the 5HT1F receptor, designated L-5-HT1F, was deposited on Dec. […] These preparations were suspended in 50 mM Tris-HCl buffer (pH 7.4 at 37° C.) containing 10 mM MgCl2, 0.2 mM EDTA, 10 μM pargyline, and 0.1% ascorbate.
# human prostate tissue = assay: Antagonism of phenylephrine-induced contraction of human prostatic tissue; details: pA2, phenylephrine-induced contraction, dose-ratio method
# Protocol: An index of this efficacy can be obtained by determining the potency of α1 antagonists to antagonize the contraction of human prostatic tissue induced by an α1 agonist “in vitro”.
# Prostatic adenomas were obtained at the time of surgery from patients with symptomatic BPH. […] Isometric tension was measured with a Grass Instrument FT03 force transducer interfaced with a computer. Tissue strips were contracted with varying concentrations of phenylephrine after incubating for 20 minutes in the absence and presence of at least three different concentrations of antagonist. Dose-response curves for phenylephrine were constructed, and the antagonist potency (pA2) was estimated by the dose-ratio method.
# [1] = target: T2, human histamine H1 receptor (Homo sapiens, UniProt P35367); assay: [3H]mepyramine binding, histamine H1 receptor
# T2 construct: host or cells: COS-7, transient, DEAE-dextran
# Text: The coding sequence of the human histamine H1 receptor, homologous to the bovine H1 receptor, was obtained from a human hippocampal cDNA library, and was cloned into the eukaryotic expression vector pCEXV-3. The plasmid DNA for the H1 receptor is designated pcEXV-H1, and was deposited on Nov. […] This construct was transfected into COS-7 cells by the DEAE-dextran method.
# human D2 receptor = target: T3, human D2 receptor (Homo sapiens, UniProt P14416); assay: [3H]spiperone binding, dopamine D2 receptor
# T3 construct: host or cells: COS-7, transient, DEAE-dextran
# Protocol: The potency of α1 antagonists at the D2 receptor was determined using membrane preparations from COS-7 cells transfected with the gene encoding the human D2 receptor. The coding region for the human D2 receptor was obtained from a human striatum cDNA library, and cloned into the cloning site of PCDNA 1 eukariotic expression vector. The plasmid DNA for the D2 receptor is designated pcEXV-D2, and was deposited on Nov. […] This construct was transfected into COS-7 cells by the DEAE-dextran method. […] The cell lysates were incubated with [3H]spiperone (2 nM), using 10 μM (+)Butaclamol to determine nonspecific binding.
# human 5HT1Dβ receptor = target: T4, human 5HT1Dβ receptor (Homo sapiens, UniProt P28222); assay: [3H]serotonin competition binding, 5HT1Dβ receptor
# T4 construct: host or cells: LM(tk-) clonal cell line Ltk-11
# Protocol: as §1
# [2] = target: T5, human histamine H2 receptor (Homo sapiens, UniProt P25021); assay: [3H]tiotidine binding, histamine H2 receptor; details: Table 2, cloned human receptor; read-out: Histamine H2 (pK1) (converted)
# T5 construct: host or cells: COS-7, transient, DEAE-dextran
# Text: The coding sequence of the human H2 receptor was obtained from a human placenta genomic library, and cloned into the cloning site of PCEXV-3 eukaryotic expression vector. The plasmid DNA for the H2 receptor is designated pcEXV-H2, and was deposited on Nov. […] This construct was transfected into COS-7 cells by the DEAE-dextran method.
# human 5HT1E receptor = target: T6, human 5HT1E receptor (Homo sapiens, UniProt P28566); assay: [3H]serotonin competition binding, 5HT1E receptor
# T6 construct: host or cells: LM(tk-) clonal cell line 5HT1E-7
# Protocol: as §1
# human 5HT2 receptor = target: T7, human 5HT2 receptor (Homo sapiens, UniProt P28223); assay: [3H]ketanserin competition binding, 5HT2 receptor
# T7 construct: host or cells: COS-7 (DEAE-dextran); the same paragraph also names a deposited line L-NGC-5HT2
# Protocol: The coding sequence of the human 5HT2 receptor was obtained from a human brain cortex cDNA library, and cloned into the cloning site of pCEXV-3 eukaryotic expression vector. This construct was transfected into COS-7 cells by the DEAE-dextran method. […] Nonspecific binding was defined by the addition of 10 μM mianserin.
# human 5HT1Dα receptor = target: T8, human 5HT1Dα receptor (Homo sapiens, UniProt P28221); assay: [3H]serotonin competition binding, 5HT1Dα receptor
# T8 construct: host or cells: LM(tk-) clonal cell line Ltk-8-30-84
# Protocol: as §1
# [3] = system: Sprague-Dawley normotensive rats; assay: Rat orthostatic hypotension model; type: in vivo; details: for BP fall / orthostatic fall in BP: i.v.; for orthostatic fall in BP: second tilt
# Protocol: Adult male Sprague-Dawley normotensive rats were anesthetized with sodium pentobarbital (45 mg/kg, i.v.). The femoral vein and artery of the right hindlimb were cannulated for drug administration and blood pressure monitoring, respectively. Heart rate was determined by a cardiotachometer triggered by the blood pressure pulse. The rats were secured in the supine position to a board that could be tilted 90 degrees. When blood pressure and heart rate had stabilized, the rats were subjected to a 90 degree vertical (head up) tilt for 60 seconds. Changes in blood pressure and heart rate from pre-tilt levels were monitored continuously. The rats were returned to the supine position and blood pressure and heart rate were allowed to stabilize. […] When blood pressure had stabilized, the rats were subjected to a second tilt and blood pressure and heart rate were recorded as described above. […] Data from the second tilt are used in statistical analysis.
# calcium channels = target: T9, calcium channels (Rattus norvegicus, UniProt P22002); assay: [3H]nitrendipine competition binding, calcium channels, rat cardiac muscle membranes; details: Table 2, rat cardiac muscle membranes; read-out: Calcium Channel (pK1) (converted)
# T9 construct: from tissue; host or cells: rat cardiac muscle membranes
# Protocol: Briefly, the tissue was minced and homogenized in 50 mM Tris-HCl (pH 7.4) containing 0.1 mM phenylmethylsulfonyl fluoride. The homogenates were centrifuged at 1000 g for 15 minutes, the resulting supernatant was centrifuged at 45,000 g for 15 minutes. The 45,000 g pellet was suspended in buffer and centrifuged a second time.
# 5-α-reductase = details: BPH patients; cited from earlier work
# T3 sequence (P14416 whole entry): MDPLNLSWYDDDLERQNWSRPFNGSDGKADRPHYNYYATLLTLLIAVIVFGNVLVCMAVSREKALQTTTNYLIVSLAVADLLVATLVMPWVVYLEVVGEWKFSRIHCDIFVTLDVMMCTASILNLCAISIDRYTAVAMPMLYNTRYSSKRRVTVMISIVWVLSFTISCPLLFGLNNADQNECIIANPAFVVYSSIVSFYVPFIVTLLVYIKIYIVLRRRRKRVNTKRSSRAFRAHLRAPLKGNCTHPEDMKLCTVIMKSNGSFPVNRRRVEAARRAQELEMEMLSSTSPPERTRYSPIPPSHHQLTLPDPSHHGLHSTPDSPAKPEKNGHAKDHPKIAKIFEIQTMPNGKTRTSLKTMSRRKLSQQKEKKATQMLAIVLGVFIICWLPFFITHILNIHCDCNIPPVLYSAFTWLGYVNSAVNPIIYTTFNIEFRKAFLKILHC
# T5 sequence (P25021 whole entry): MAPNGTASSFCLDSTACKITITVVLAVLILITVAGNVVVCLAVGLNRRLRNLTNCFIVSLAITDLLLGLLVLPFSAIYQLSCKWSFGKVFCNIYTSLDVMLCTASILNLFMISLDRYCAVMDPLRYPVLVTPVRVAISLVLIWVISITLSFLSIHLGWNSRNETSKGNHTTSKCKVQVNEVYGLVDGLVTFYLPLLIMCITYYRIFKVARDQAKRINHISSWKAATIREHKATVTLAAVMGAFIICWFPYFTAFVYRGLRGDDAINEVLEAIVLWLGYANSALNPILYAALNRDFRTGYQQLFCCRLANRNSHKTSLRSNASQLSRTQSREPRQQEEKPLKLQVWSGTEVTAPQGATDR
# T2 sequence (P35367 whole entry): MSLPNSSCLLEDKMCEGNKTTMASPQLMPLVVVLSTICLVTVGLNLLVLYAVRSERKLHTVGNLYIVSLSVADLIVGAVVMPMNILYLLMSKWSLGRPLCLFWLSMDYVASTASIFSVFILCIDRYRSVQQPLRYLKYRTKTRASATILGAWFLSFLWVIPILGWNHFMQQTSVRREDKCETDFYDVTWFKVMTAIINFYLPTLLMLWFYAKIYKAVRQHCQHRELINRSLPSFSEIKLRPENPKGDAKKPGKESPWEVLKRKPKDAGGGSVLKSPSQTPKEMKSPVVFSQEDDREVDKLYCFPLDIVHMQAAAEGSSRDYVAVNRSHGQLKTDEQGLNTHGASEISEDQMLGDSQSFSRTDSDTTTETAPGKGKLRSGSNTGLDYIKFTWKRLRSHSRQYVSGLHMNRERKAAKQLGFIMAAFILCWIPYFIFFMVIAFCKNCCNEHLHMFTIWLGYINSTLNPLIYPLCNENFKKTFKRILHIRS
# T6 sequence (P28566 whole entry): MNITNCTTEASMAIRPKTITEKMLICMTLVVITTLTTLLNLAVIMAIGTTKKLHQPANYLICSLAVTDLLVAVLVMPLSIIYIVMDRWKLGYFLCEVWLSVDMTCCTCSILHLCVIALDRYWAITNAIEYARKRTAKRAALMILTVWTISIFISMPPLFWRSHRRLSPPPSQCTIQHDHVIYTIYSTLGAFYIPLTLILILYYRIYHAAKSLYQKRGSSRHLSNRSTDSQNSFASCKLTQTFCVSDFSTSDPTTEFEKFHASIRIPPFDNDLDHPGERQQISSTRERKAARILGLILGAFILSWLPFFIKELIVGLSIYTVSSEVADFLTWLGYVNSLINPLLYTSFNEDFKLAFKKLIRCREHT
# T7 sequence (P28223 whole entry): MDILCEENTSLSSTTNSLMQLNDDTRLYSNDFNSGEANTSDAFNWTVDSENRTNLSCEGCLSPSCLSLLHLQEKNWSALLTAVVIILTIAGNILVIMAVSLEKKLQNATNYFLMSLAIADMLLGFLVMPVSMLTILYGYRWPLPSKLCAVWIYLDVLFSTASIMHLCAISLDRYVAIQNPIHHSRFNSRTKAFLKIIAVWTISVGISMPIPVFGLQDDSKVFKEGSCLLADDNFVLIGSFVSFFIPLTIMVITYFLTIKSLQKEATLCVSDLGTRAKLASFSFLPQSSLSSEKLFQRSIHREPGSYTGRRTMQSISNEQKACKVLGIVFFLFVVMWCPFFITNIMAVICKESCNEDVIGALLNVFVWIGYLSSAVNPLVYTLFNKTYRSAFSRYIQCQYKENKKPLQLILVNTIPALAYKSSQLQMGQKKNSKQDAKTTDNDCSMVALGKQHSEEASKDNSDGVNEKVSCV
# T8 sequence (P28221 whole entry): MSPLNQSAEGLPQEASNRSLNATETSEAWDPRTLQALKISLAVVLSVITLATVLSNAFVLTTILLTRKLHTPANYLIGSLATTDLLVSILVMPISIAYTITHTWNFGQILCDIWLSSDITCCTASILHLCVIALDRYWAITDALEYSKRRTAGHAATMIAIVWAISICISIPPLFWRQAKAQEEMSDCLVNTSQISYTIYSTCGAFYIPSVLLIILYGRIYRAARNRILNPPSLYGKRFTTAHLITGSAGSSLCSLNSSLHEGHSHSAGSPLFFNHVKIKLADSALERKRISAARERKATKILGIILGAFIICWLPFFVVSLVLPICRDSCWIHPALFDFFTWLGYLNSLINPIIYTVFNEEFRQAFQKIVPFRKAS
# T4 sequence (P28222 whole entry): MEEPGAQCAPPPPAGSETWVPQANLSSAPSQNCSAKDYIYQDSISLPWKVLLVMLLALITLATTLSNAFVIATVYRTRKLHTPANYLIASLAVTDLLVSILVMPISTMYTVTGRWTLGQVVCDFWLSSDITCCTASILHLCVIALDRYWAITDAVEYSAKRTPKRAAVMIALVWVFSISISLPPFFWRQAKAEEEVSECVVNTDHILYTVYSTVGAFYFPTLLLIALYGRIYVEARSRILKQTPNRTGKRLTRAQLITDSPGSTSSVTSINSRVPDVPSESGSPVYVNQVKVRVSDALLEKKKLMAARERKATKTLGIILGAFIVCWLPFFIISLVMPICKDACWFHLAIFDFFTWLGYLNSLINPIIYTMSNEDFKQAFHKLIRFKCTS
structure (smiles),measurement,setting,value
"O=C(CCCN1CCC(NC(=O)c2ccccc2)CC1)c1ccc(Cl)cc1 (as salt: HCl) [Example 4, 1-[3-(4-chlorobenzoyl)propyl]-4-benzamidopiperidine]",melting point,,243 to 244 °C
"COC(=O)C1=C(C)NC(C)=C(C(=O)NCCCN2CCC(c3ccccc3)(c3ccccc3)CC2)C1c1ccc([N+](=O)[O-])cc1.Cl.O (stereo not drawn) [Compound 2, 2,6-Dimethyl-4-(4-nitrophenyl)-1,4-dihydropyridine-3,5-dicarboxylic acid N-[3-(4,4-diphenylpiperidin-1-yl)-propyl]amide methyl ester hydrochloride hydrate]",pKi,human 5HT1F receptor,< 5.00
same,Human Prostate (pA),human prostate tissue,8.94
same,pKi,[1],7.16
same,pKi,human D2 receptor,< 7.00
same,pKi,human 5HT1Dβ receptor,< 6.00
same,Ki,[2],33.1 nM
same,pKi,human 5HT1E receptor,< 5.00
same,pKi,human 5HT2 receptor,< 6.00
same,pKi,human 5HT1Dα receptor,< 7.00
COc1cc2nc(N3CCN(C(=O)c4ccco4)CC3)nc(N)c2cc1OC [Prazosin],BP fall,"[3]; Dose 1, 10 ug/kg",+
same,orthostatic fall in BP,"[3]; Dose 1, 10 ug/kg",+
same,BP fall,"[3]; Dose 2, 100 ug/kg",++
same,orthostatic fall in BP,"[3]; Dose 2, 100 ug/kg",++ or +++
same,BP fall,"[3]; Dose 3, 1000 ug/kg",+++
same,orthostatic fall in BP,"[3]; Dose 3, 1000 ug/kg",++ or +++
same,orthostasis (Table 3),"[3]; doses 10, 100, 1000 ug/kg",consistently cause orthostasis at the lowest dose
same,Human Prostate (pA),human prostate tissue,9.08
same,Ki,calcium channels,26900 nM
CC(C)(C)NC(=O)[C@H]1CC[C@H]2[C@@H]3CC[C@H]4NC(=O)C=C[C@]4(C)[C@H]3CC[C@]12C [Proscar],patients in whom effective,5-α-reductase,30%
same,period required to show results,5-α-reductase,up to 6 months
"COc1cc2nc(N3CCN(C(=O)C4CCCO4)CC3)nc(N)c2cc1OC (stereo not drawn) [Terazosin, 2 [4-(Tetrahydro-2-furoyl)piperazinyl]-4-amino-6,7-dimethoxyquinazoline hydrochloride, reference compound]",Human Prostate (pA),human prostate tissue,7.30
same,pKi,"human D2 receptor; Table 2, cloned human receptor, read-out: Dopamine D2 (pK1)",< 5.00
same,Ki,[2],9120 nM
